The values below come from US20230372319A1, “Combination Treatment of Cancer” (Ares Trading S.A., priority 2020, published 2023).

The subject of experiment [1] is MDA-MB-436 human breast cancer cell line. Description: MDA-MB-436 breast cancer model. It is filed as in vivo. To be noted: NOD/SCID mice, bintrafusp alfa 492 μg i.v. BiWx4, niraparib 35 mg/kg p.o. QDx28.
Procedure: NOD/SCID mice were inoculated with MDA-MB-436 cells (10×10^6) in the right flank (day −19). […] Tumor volumes were measured twice weekly and presented as mean ±SEM or as individual tumor volumes. P-values were calculated by two-way ANOVA with Tukey's or Sidak's post-test.
MDA-MB-436 (BRCA1-mut) cells were obtained from American Type Culture Collection (ATCC® HTB-130™) and were cultured in RPMI-1640 supplemented with 10% heat inactivated fetal bovine serum, 100 U/ml penicillin and 100 μg/ml streptomycin at 37° C. in an atmosphere of 5% CO2 in air. […] Cells were cultured under aseptic conditions and incubated at 37° C. with 5% CO2. […]
(§1) Tumor sizes were measured twice per week with digital calipers and recorded automatically using WinWedge software. Tumor volumes were calculated with the following formula: tumor volume (mm^3)=tumor length×width×height×0.5236. Tumor growth inhibition (TGI) was calculated with the following formula: TGI (%)=[1−(Ti−T0)/(Vi−V0)]×100, where Ti is the average tumor volume (mm^3) of a treatment group on a given day, T0 is the average tumor volume of the treatment group on the first day of treatment, Vi is the average tumor volume of the vehicle control group on the same day as Ti, and V0 is the average tumor volume of the vehicle control group on the first day of treatment. […]
The subject of experiment [2] is MDA-MB-231 human breast cancer. Kind of experiment: MDA-MB-231 breast cancer model. In kind it is in vivo. To be noted: NOD/SCID mice, s.c.; bintrafusp alfa 492 μg i.v. BiWx4; niraparib 50 mg/kg p.o. QDx28; day 41; vs isotype control or monotherapies as stated.
Procedure: NOD/SCID mice were subcutaneously inoculated with MDA-MB-231 cells (10×10^6) in the right flank (day −19). […] Tumor volumes were measured twice weekly and presented as mean ±SEM or as individual tumor volumes. P-values were calculated by two-way ANOVA with Tukey's post-test.
MDA-MB-231 (BRCA-wt) cells were obtained from ATCC (ATCC® HTB-26™) and were cultured in Leibovitz's L-15 supplemented with 15% heat inactivated fetal bovine serum, 100 U/ml penicillin and 100 μg/ml streptomycin at 37° C. in an atmosphere of 5% CO2 in air. […] Cells were cultured under aseptic conditions and incubated at 37° C. with 5% CO2. Cells were passaged before in vivo implantation and adherent cells were harvested with TrypLE Express. […]
as §1
A further experiment deals with B16F10 cells. Kind of experiment: Subcutaneous B16F10 melanoma model. It is filed as in vivo. Particulars: C57BL/6 mice, s.c.; bintrafusp alfa 492 μg i.v. days 0, 3, 6; niraparib 50 mg/kg p.o. QDx14; days 15/19; vs isotype control or monotherapies as stated.
For a further experiment, the system named is AT-3 cells. Description: Orthotopic AT-3 breast cancer model. It is filed as in vivo, C57BL/6 mice. To be noted: for median survival: isotype control 13 days; for responders (mice with tumor volumes<1 σ of the control group mean): day 13 post treatment start, n=10 mice/group.
Experiment [3] deals with PARP activity in various cell lines. To be noted: cited from earlier work.
Another experiment relates to RENCA cells. Particulars: BALB/c mice, day 12; bintrafusp alfa 492 μg i.v. days 0, 2, 5; niraparib 50 mg/kg p.o. days 0-11.

Usually IC50 stands for the concentration at which inhibition is half-maximal.

Procedure for AT-3 cells: C57BL/6 mice were inoculated orthotopically with AT3 cells (0.5×10^6) in the mammary fat pad (day −11). […] Tumor volumes were measured twice weekly. In the lower plot, individual tumor volumes at day 13 are presented with a line representing the median tumor volume and error bars showing the 95% confidence intervals. […] P-values were calculated by two-way ANOVA with Tukey's post-test.
AT-3 cells were obtained from Sigma and were cultured in DMEM supplemented with 10% FBS, 1 mM sodium pyruvate, 2 mM non-essential amino acids, 15 mM HEPES, and 1×β-mercaptoethanol. […] Cells were cultured under aseptic conditions and incubated at 37° C. with 5% CO2. Cells were passaged before in vivo implantation and adherent cells were harvested with TrypLE Express.
For the efficacy study, 0.5×10^6 AT-3 cells were inoculated orthotopically into the right lower mammary at pad of C57BL/6 mice on day −11. Treatment was initiated on day 0 when average tumor volume reached ˜50 mm^3. Mice were sacrificed when tumor volumes reached ˜1000 mm^3.
Mice were randomized into treatment groups according to tumor volume on the day of treatment initiation (day 0).
The isotype control is a mutated version of anti-PD-L1, which completely lacks PD-L1 binding. In tumor-bearing mice, bintrafusp alfa (492 μg) or isotype control (400 μg) were administered with an intravenous (i.v.) injection in 0.2 mL PBS.
Radiation therapy (RT) was delivered at 8 Grey (Gy) on days 0-3.
Tumor sizes were measured twice per week with digital calipers and recorded automatically using WinWedge software. Tumor volumes were calculated with the following formula: tumor volume (mm^3)=tumor length×width×height×0.5236. Tumor growth inhibition (TGI) was calculated with the following formula: TGI (%)=[1−(Ti−T0)/(Vi−V0)]×100, where Ti is the average tumor volume (mm^3) of a treatment group on a given day, T0 is the average tumor volume of the treatment group on the first day of treatment, Vi is the average tumor volume of the vehicle control group on the same day as Ti, and V0 is the average tumor volume of the vehicle control group on the first day of treatment. To compare the percentage survival between different treatment groups, Kaplan-Meier survival curves were generated. Body weight was measured twice weekly and mice were sacrificed when their tumor volume exceeded 2,500 mm^3 for s.c. and intramuscular tumors and 1,000 mm^3 for mammary orthotopic tumors.
Procedure for B16F10 cells: C57BLJ6 mice were inoculated subcutaneously with B16F10 cells (0.5×10^6) in the flank. […] Tumor volumes were measured twice weekly and presented as mean ±SEM or as individual tumor volumes. P-values were calculated by two-way ANOVA with Tukey's or Sidak's post-test.
B16F10 cells were obtained from (ATCC) and were cultured in Dulbecco's Modified Eagle's medium (DMEM) supplemented with 10% fetal bovine serum (FBS). […] Cells were cultured under aseptic conditions and incubated at 37° C. with 5% CO2. Cells were passaged before in vivo implantation and adherent cells were harvested with TrypLE Express. […]
as §1
Procedure for RENCA cells: BALB/c mice were inoculated orthotopically with RENCA cells (0.5×10^5) in the left kidney (day −6). […] Mice were euthanized at day 12 and both kidneys were weighed. The weight of the tumor bearing left kidney was divided by the weight of the bilateral right kidney to calculate the kidney mass ratio. Individual kidney mass ratios were plotted, with a line representing the median.
The RENCA cells were obtained from ATCC (ATCC® CRL-2947™) and were cultured in RPMI-1640 with 10% heat inactivated fetal bovine serum and 0.1 mM non-essential amino acids. […] Cells were cultured under aseptic conditions and incubated at 37° C. with 5% CO2. […]
as §1

Regarding `NC(=O)c1cccc2cn(-c3ccc([C@@H]4CCCNC4)cc3)nc12` [niraparib, (3S)-3-[4-{7-(aminocarbonyl)-2H-indazol-2-yl}phenyl]piperidine], the “median time to disease progression after stopping treatment” value in experiment [1] came out at 42.5 days. Also, the “tumor growth (tumor volume), in words” value in experiment [1] (vs isotype control or monotherapy as stated, days 41/69) is on record as “significantly inhibited tumor growth”; in experiment [2] it was “significantly reduced tumor growth”; in the experiment on B16F10 cells it was “neither bintrafusp alfa nor niraparib monotherapies significantly reduced tumor growth”. The same compound gave a median survival in the experiment on AT-3 cells (C57BL/6 mice) of 13 days. In addition, the “responders (mice with tumor volumes<1 σ of the control group mean)” value in the experiment on AT-3 cells is 5/10. Further, the “inhibitory concentration at 90% of control (1090) of PARP activity in cells” value in experiment [3] (PARP activity stimulated by DNA damage caused by hydrogen peroxide) is approximately 50 nM. In addition, the IC50 in experiment [3] (read-out: IC50 of PARP activity in cells, PARP activity stimulated by DNA damage caused by hydrogen peroxide) was approximately 4 nM.

Regarding “bintrafusp alfa: anti-PD-L1:TGFβRII fusion protein; human IgG1 antibody against PD-L1 fused to extracellular domain of human TGF-β receptor II; SEQ ID NO: 7 and 8”, the “tumor growth (tumor volume), in words” value is given as “significantly reduced tumor growth” in experiment [2] and “neither bintrafusp alfa nor niraparib monotherapies significantly reduced tumor growth” with B16F10 cells. For the same compound, the “tumor growth relative to isotype control or bintrafusp alfa monotherapy, in words” value with AT-3 cells (C57BL/6 mice, day 13, bintrafusp alfa 492 μg i.v. days 0, 3, 6, niraparib 50 mg/kg p.o. days 0-13) is listed as “did not significantly reduce tumor growth”. Further, in the experiment with AT-3 cells (C57BL/6 mice), the median survival was 13 days. For the same compound, the “responders (mice with tumor volumes<1 σ of the control group mean)” value in the experiment on AT-3 cells is recorded as 1/10. Also, in the experiment on RENCA cells, the “relative kidney tumor burden: ratio of mass of tumor bearing kidney to bilateral normal kidney (median)” value was determined as 3.74.
